Where two headings read alike, the source gives them in different places.

This note sets out measurements from patent US20040192606A1, “Method of promoting angiogenesis” (priority 1995, published 2004).

Series [1] concerns THP-1 cells. Put plainly: VEGF protein secretion by THP-1 cells (ELISA of conditioned media). The conditions noted are these: for VEGF induction: 17 nM (equivalent molar concentration to relaxin); for inhibition of relaxin-induced VEGF stimulation: PKA inhibitors used at or above their Ki doses, ELISA, data not shown. In kind it is cell-based, human.
The test system of series [2] is VEGF transcripts in THP-1 cells. The series is described as follows: PCR and Southern blot analysis of steady state VEGF mRNA in THP-1 cells. Format: cell-based, human.
For series [3], the system named is rabbit corneal stroma. Put plainly: Rabbit corneal assay (neo-capillary growth toward implanted hydron disc). Format: in vivo. The protocol:
(§1) In vivo activity for angiogenesis is determined by the rabbit corneal injection protocol and by the matrigel subcutaneous insert vascularization protocol.
Test and control material is mixed with hydron into a 0.1 cc disc (resembling a small contact lens). The disc is implanted into a rabbit corneal stroma micro pocket using appropriate anesthesia for the procedure. After one week, neo-capillary growth toward the disc is measured and scored (0-4) utilizing a standard anatomic grading scale. A score of 0 means no growth. A score of 1 means capillaries (one or two) just entering the corneal stroma from the limbus toward the pocket. A score of 3 means vessels have grown to the base of the implant. A score of 4 means vessels have grown around the implant.

Series [4] deals with THP-1 cells. Put plainly: Other effects on THP-1 cells (morphology, thymidine uptake, metalloproteinase expression, nitric oxide production). Format: cell-based, human.
Series [5] deals with THP-1 cells. Put plainly: cAMP levels in THP-1 cells. In kind it is cell-based, human. In general terms: cAMP levels reflect the balance of adenylyl cyclase and phosphodiesterase activity.
A short description of series [6]: Serum concentration of relaxin in ongoing clinical trials. Format: in vivo, human. The protocol: While human dosage levels for treating depression have yet to be optimized for relaxin, generally, a daily dose is from about […] of body weight per day, preferably about […] μg/kg, and most preferably about 12.0 to 100.0 μg/kg. Generally it is sought to obtain a serum concentration of relaxin approximating or greater than normal circulating levels in pregnancy, i.e., 1.0 ng/ml, such as 0.5 to 50 ng/ml, preferably 1.0 to 20 ng/ml. […] Thus, for administration to a 70 kg person, the dosage range would be about 7.0 μg to 3.5 mg per day, preferably about […] to 2.1 mg per day, and most preferably about […] per day. The amount of relaxin administered will, of course, be dependent on the subject and the severity of the affliction, the manner and schedule of administration and the judgment of the prescribing physician.

For series [7], the system named is mouse dorsum (matrigel plug). Put plainly: Murine matrigel subcutaneous insert vascularization assay. Format: in vivo. How it is done: as §1
Matrigel (Collaborative Biomedical, Bedford, Mass.) is a reconstituted basement membrane complex containing primarily laminin and type IV collagen. It is isolated from the Engelbreth-Holm-Swarm (EHS) murine tumor. At room temperature, matrigel is liquid; but when injected subcutaneously into a mouse it reconstitutes as a gel.
Test substance is mixed with matrigel (1%v/v media in 1 cc matrigel) at room temperature and then injected subcutaneously into a mouse dorsum (5 month old female Swiss-Webster). After one week, the mouse is sacrificed and the gel plug(s) harvested. Samples are fixed in buffered formalin, paraffin embedded, sectioned (4 μ) and H&E stained. The samples are scored 1 (positive), 0.5 (indeterminate) or 0 (negative).

For the compound “IGF-I: member of the relaxin family (Promega)”, in series [1], the VEGF induction entry is “Neither IGF-I and IGF-II induced VEGF production”.

Take `CCCC(=O)Nc1ncnc2c1ncn2[C@@H]1O[C@@H]2COP(=O)(O)O[C@H]2[C@H]1OC(=O)CCC` [dbcAMP, Dibutyryl cAMP]: the “Net VEGF Expr” value in series [1] (Exp 3, 10^−4M, 8 h, net of placebo, mean ± SEM) was 488 ± 27 pg/mL; in series [1] (Exp 3, 10^−5M, 8 h, net of placebo, mean ± SEM), 142 ± 26 pg/mL; in series [1] (Exp 3, 10^−6M, 8 h, net of placebo), -0- pg/ml.

Turning to `CCCC(=O)Nc1nc2c(ncn2[C@@H]2O[C@@H]3COP(=O)(O)O[C@H]3[C@H]2OC(=O)CCC)c(=O)[nH]1` [dbcGMP, dibutyryl cGMP], the “Net VEGF Expr” value in series [1] (Exp 3, 10^−6M-10^−4M (each dose), 8 h, net of placebo) is given as -0- pg/ml.

`O=S(=O)(NCCNC/C=C/c1ccc(Br)cc1)c1cccc2cnccc12` [H-89]: the “inhibition of relaxin-induced VEGF stimulation” value (“inhibition” for short) in series [1] is reported as “failed to completely inhibit VEGF stimulation”.

As for `C[C@@H]1C[C@@H]([C@H](O)CC2CC(=O)NC(=O)C2)C(=O)[C@@H](C)C1` [cycloheximide, reference compound], the “effect on relaxin-induced increase of VEGF transcripts” value in series [2] (added with recombinant human relaxin (H2)) was “did not interfere with or amplify this increase”.

Take “insulin: member of the relaxin family, compared at 17 nM”: the “VEGF expression relative to that induced by relaxin” value in series [1] (17 nM) is “roughly 30%”.

For the compound `CC(C)Cn1c(=O)n(C)c(=O)c2[nH]cnc21` [IBMX, isobutylmethylxanthing], the “Net VEGF Expr” value in series [1] (Exp 1, 50 × 10^−6M, 24 h, net of placebo-treated control, mean ± SEM) came out at 154 ± 46 pg/mL; in series [1] (Exp 2, 50 × 10^−6M, 8 h, net of placebo, mean ± SEM), 209 ± 20 pg/mL.

Take `C[C@]12CC[C@@H]3c4ccc(O)cc4CC[C@H]3[C@@H]1CC[C@@H]2O` [17-β-estradiol]: the “effect on relaxin VEGF stimulation compared to relaxin alone” value in series [1] (1 μM, simultaneously with relaxin or 48 hours pretreatment) is “Neither treatment protocol resulted in a difference in VEGF stimulation”.

Turning to Pertussis toxin, the “Net VEGF Expr” value in series [1] (Exp 4, 1 μg/ml, 8 h, net of placebo, mean ± SEM) is recorded as -0- pg/ml.

As to relaxin, in series [3] (disc in rabbit corneal stroma micro pocket, after one week, n=8, standard error 0.5, placebo 0.6, P 0.08), the “mean score of neo-capillary growth toward the disc (0-4 anatomic grading scale)” value was 1.5. For the same compound, the “angiogenic activity (conclusion)” value in series [3] (rabbit corneal assay) and in series [7] (murine matrigel assay) was “angiogenic” each time. The “morphological changes (adherence to plastic, clumping)” value in series [4] was “no observable morphological changes”. Besides, in series [5] (relaxin treatment, dose not given), the cAMP levels result is on record as “causes an increase in cAMP”. Moreover, in series [2] (10 ng/ml), the “time at which increase of VEGF transcripts is detectable” value was determined as 30 min. In addition, the “increase of VEGF121, 165 and 189 PCR bands” value in series [2] (10 ng/ml, by 2 hours) is given as “roughly 2 fold”. Further, the “intensity of VEGF transcript bands on Southern blot” value in series [2] (100 ng/ml) is given as “intensity of all bands is increased”. Also, the “time course of VEGF in conditioned media” value in series [1] (1 ng/ml and 100 ng/ml) was “increased in the conditioned media in roughly linear fashion up to at least 72 hours”. For the same compound, the “VEGF protein secretion (dose dependence)” value in series [1] (0.04-50 ng/ml, 8 hours) is “dose dependent manner”. The “Net VEGF Expr” value in series [1] (Exp 2, 10 ng/ml, 8 h, net of placebo, mean ± SEM) stood at 161 ± 19 pg/mL. Also, the “relaxin concentration at which VEGF protein secretion peaks” value in series [1] (doses 0.04-50 ng/ml, 8 hours) is 1 ng/mL. For the same compound, the serum concentration entry was “about 1.8 ng/ml” in series [6] (dosage about 6.0 μg/kg, ±0.3); ~3.6 ng/mL in series [6] (dosage about 12.0 μg/kg, ±0.6); ~11.8 ng/mL in series [6] (dosage about 50 μg/kg, ±1.6). Moreover, the “mean score of gel plugs (1 positive, 0.5 indeterminate, 0 negative)” value in series [7] (subcutaneous matrigel in mouse, after one week, standard error 0.1, control 0.3, P 0.02) turned out to be 0.8.

In the case of `CCCCCCOC(=O)[C@]1(O)C[C@@H]2O[C@@]1(C)n1c3ccccc3c3c4c(c5c6ccccc6n2c5c31)C(=O)NC4` [KT5720], the “inhibition” value in series [1] is “failed to completely inhibit VEGF stimulation”.

Regarding `Nc1ncnc2c1ncn2C1CCCO1` (stereo not shown) [SQ22536], the “inhibition” value in series [1] is listed as “failed to completely inhibit VEGF stimulation”.

For Cholera toxin, the “Net VEGF Expr” value in series [1] came out at 1278 ± 106 pg/mL.

For “IGF-II: member of the relaxin family (Promega)”, the VEGF induction result in series [1] was “Neither IGF-I and IGF-II induced VEGF production”.

Regarding `CCCCCCCCCCCCCC(=O)O[C@@H]1[C@@H](C)[C@@]2(O)[C@@H](C=C(CO)C[C@]3(O)C(=O)C(C)=C[C@@H]23)[C@@H]2C(C)(C)[C@]12OC(C)=O` [PMA, reference compound], the cAMP levels entry in series [5] (1 ng/ml, data not shown) was “does not increase cAMP levels”. Also, the “Net VEGF Expr” value in series [1] (Exp 5, 1 ng/ml, 8 h, net of placebo, mean ± SEM) stood at 342 ± 18 pg/mL.
